Assay results published in patent US9102675B2, “3-Cyanoaryl-1H-pyrrolo[2,3-B] pyridine derivatives” (MERCK PATENT GMBH, priority 2011, dated 2015).

Each compound was assayed on TBK1 + IKKε (assay: TBK1 + IKKε cell assay: dose response inhibition of phospho-IRF3 @ Ser 386 in MDA-MB-468 cells after poly(I:C) stimulation). Conditions: Homo sapiens, MDA-MB-468, MDA-MB-468 cells, nuclear phospho-IRF3 Ser386, read-out: TBK1 + IKKε cell assay IC50.
Assay type: cell-based
Source text: Dose response inhibition of phospho-IRF3 @ Ser 386 cell/MDAMB468/INH/PHOS/IMAG/pIRF3
Although TBK1 and IKKε are mainly known as key substances in the innate immune response, recent findings have indicated a role for TBK1 and IKKε in Ras-induced oncogenic transformation. TBK1 was identified as RaIB effector in the Ras-like (RaI)-guanine nucleotide exchange factor (GEF) pathway that is required for Ras-induced transformation. TBK1 directly activates IRF3 which, on phosphorylation, homodimerises and translocates to the nucleus, where it activates processes associated with inflammation, immune regulation, cell survival and proliferation.
This assay has been developed in order to assess the efficacy/potency of TBK1/IKKε inhibitor compounds based on the immunocytochemical detection of nucleus-localised phospho-IRF3, a target directly downstream of TBK1. Treatment with polyinosine-polycytidylic acid (poly(I:C), a synthetic analogue of double-stranded RNA (dsRNA), a molecular pattern associated with viral infection and recognised by Toll-like receptor 3 (TLR3) is used to induce TBK1/IKKε activity and IRF3 phosphorylation at Ser386.
Day 1: MDA-MB-468 cells are detached using HyQ-Tase, counted and sown into a 384-well plate with TC surface and clear bottom in a density of 10,000 cells per well in a total volume of 35 μl of complete medium. Alternatively, the cells are sown directly from frozen glass vials.
Day 2: The cells are pre-treated with inhibitor compounds for 1 h prior to poly(I:C) stimulation. After incubation for 2 h with poly(I:C), the cells are fixed in (para)formaldehyde (PFA) and permeabilised using methanol (MeOH). The cells are then blocked and incubated with an anti-pIRF3 antibody at 4° C. overnight.
Day 3: The primary antibody is washed off, an AlexaFluor488-conjugated secondary antibody is added, the cells are contrast-stained with propidium iodide, followed by image acquisition on an IMX ultra-high content reader.
Plating medium=culture medium: • RPMI 1640, Invitrogen #31870 • 10% of FCS, Invitrogen #10270-106 • 2 mM Glutamax, Invitrogen #35050-038 • 1 mM sodium pyruvate, Invitrogen #11360 • 1% of Pen/Strep • 37° C., 5% of CO2
Plates: 384-well bottom cell culture plates with black/clear bottom, Falcon #35 3962 or Greiner #781090
Subcultivation: HyQ-Tase, Thermo Scientific (HyClone) # SV30030.01
Poly(I:C) (LMW), Invitrogen # tlrl-picw (prepare 20 mg/ml stock solution in sterile PBS, denature 30 min 55° C. in a water bath, slowly cool to RT, store at −20° C. in aliquots)
a 10-point dose-response curve with MSC2119074A-4=BX-795 is included in each experiment
Formaldehyde (methanol-free, 16%, ultrapure EM grade), Polysciences #18814 (storage RT), final conc.: 4%
Goat serum, PAA # B15-035 (storage 4° C., long term −20° C.), final conc.: 10%
BSA (IgG- and protease-free, 30%), US-Biological # A1317 (storage 4° C., long term −20° C.), final conc.: 2%
Tween 20 detergent, Calbiochem #655204 (storage RT), (prepare 10% stock solution in water; final conc.: 0.1%)
Anti-pIRF-3 rabbit mAb, Epitomics #2526-B (storage −20° C.), final conc.: 1:2000 in PBS/2% of BSA
Alexa Fluor goat-anti-rabbit-488, Invitrogen # A11034 or # A11008 (storage 4° C., dark), final conc.: 1:2000 in PBS/2% of BSA/0.1% of Tween
Propidium iodide (PI), Fluka #81845, 1 mg/ml in H2O (storage 4° C., dark), final conc.: 0.2 μg/ml
(1) Sow 10,000 cells/well/35μof complete RPMI +10% FCS into 384-well bottom cell culture plates with black / clear bottom,
(2) Incubate for 2 h at room temperature on the bench, followed by further incubation for 22 h at 37° C., 5% of CO2 and 90% RH. […]

| SMILES | IC50 [nM] |
| --- | --- |
| CC1(COc2ccc(-c3c[nH]c4ncc(-c5cn[nH]c5)cc34)cc2C#N)COC1 [Compound A36, 2-(3-methyloxetan-3-ylmethoxy)-5-[5-(1H-pyrazol-4-yl)-1H-pyrrolo[2,3-b]pyridin-3-yl]benzonitrile] | 3000 to 50000 |
| N#Cc1cc(-c2c[nH]c3ncc(-c4cnn(C5COC5)c4)cc23)cnc1OC1CCOCC1 [Compound A37, 5-[5-(1-Oxetan-3-yl-1H-pyrazol-4-yl)-1H-pyrrolo-[2,3-b]pyridin-3-yl]-2-(tetrahydropyran-4-yloxy)-nicotinonitrile] | 3000 to 50000 |
| COCCn1cc(-c2cnc3[nH]cc(-c4cnc(OC5CCOCC5)c(C#N)c4)c3c2)cn1 [Compound A38, 5-{5-[1-(2-Methoxyethyl)-1H-pyrazol-4-yl]-1H-pyrrolo-[2,3-b]pyridin-3-yl}-2-(tetrahydropyran-4-yloxy)-nicotinonitrile] | 300 to 3000 |
